Source: patent publication US8277815B2, “Pharmaceutical composition comprising an antigen” (Intercell AG, priority 1999, dated 2012)

Assays:
antigen specific T cells = test: IFN-γ-ELISPOT of lymph node lymphocytes 10 days after subcutaneous vaccination; type: in vivo, C57BL/6 mice; conditions: lymph node lymphocytes of TRP-2 vaccinated mice; negative control with the same MHC restriction
Protocol: Experimental Groups (5 Mice Each) • 1) TRP-2 peptide • 2) TRP-2 peptide+HGH • 3) TRP-2 peptide+pR 60 • 4) TRP-2 peptide+pR 60+HGH
On day 0 mice were injected subcutaneously with a total volume of 100 μl containing the above mentioned compounds. Animals were sacrificed 10 days after injection of the vaccine and mesenteric and inguinal lymph nodes harvested. Results are illustrated in FIG. 1.
Lymphocytes were prepared from lymph nodes as follows: cells were passed through a 70 μm sieve and washed twice with DMEM medium (GIBCO BRL) containing 2.5% fetal calf serum (FCS; SIGMA chemicals). Cells were adjusted to 10^7 cells/ml in complete medium (DMEM+10% FCS). IFN-γ-ELISPOT assays were carried out in triplicate as described (Miyahira et al., 1995). This method is a widely used procedure allowing the quantification of antigen-specific T cells. Lymphocytes were restimulated with TRP-2 peptide or with an ovalbumin-derived peptide (SIINFEKL) with the same MHC restriction serving as negative control.
Spots representing single T cells specific for the peptide used for re-stimulation (and immunization) were counted. The number of background spots observed with cells incubated without peptide(s) was subtracted from all samples.

[1] = test system: tick-born encephalitis (TBE) virus; conditions: in vivo; cited from earlier work

Substance | spots on restimulation with the ovalbumin-derived control peptide (IFN-γ-ELISPOT) (antigen specific T cells) | vaccine efficacy / protection of animals [1]
SIINFEKL [ovalbumine derived peptide] | no spots detected | 
HGH: Human growth hormone, pituitary-derived factor; SAIZEN, Laboratoires Serono used in Example 1 |  | potentiated vaccine efficacy and led to the protection of animals after only one injection of the vaccine
